We go through 23 molecules from US8354436B2 (4SC Discovery GmbH, priority 2011, dated 2013).

Holding throughout (format): cell-based
Holding throughout (settings): 48 hours

In assay [1] the test system is IFN-γ. The experiment in a line: IFN-γ production by PHA-stimulated human PBMC (OptEIA human IFN-g ELISA). An outline of the steps:
(§1)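 Healthy-donor PBMC (1×10^5 cells/well) were activated with 2 μg/ml PHA and cultured with test compounds for 48 hours; cytokines were then quantified in supernatants by the respective immunoassay. Screening used 10, 1, 0.1 and 0.01 μM; IC50 came from semilogarithmic compound titration.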
On the technique in general: An ELISA detects its analyte on a solid surface through an enzyme-linked reagent.

Assay [2] has as its system PBMC from healthy human donors. Description: T cell proliferation assay (PHA-stimulated human PBMC, BrdU ELISA). An outline of the steps:
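Healthy-donor PBMC isolated on Ficoll, seeded at 1×10⁵ cells/well in RPMI with 10% dialysed FCS, stimulated with 2 μg/ml PHA in presence of test compound. Proliferation read after 48 hours by BrdU-incorporation ELISA.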
(In general: Incorporation of labelled thymidine or its analogues reports DNA synthesis.)

The test system of assay [3] is IL-17FF. The experiment in a line: IL-17FF production by PHA-stimulated human PBMC (human IL-17F ELI-Pair). In short, it runs like this:
as §1

The mark [4] stands for this setting: PHA-stimulated human PBMC, column C, read-out: IC50 (IFNγ).
[5] abbreviates: PHA-stimulated human PBMC, column D, read-out: IC50 (Tcell proliferation).
[6] abbreviates: PHA-stimulated human PBMC, column B, read-out: IC50 (IL-17FF).
The mark [7] stands for this setting: human PBMC, 2 μg/ml PHA, read-out: C: IC50 (IFNγ).
The mark [8] stands for this setting: human PBMC, 2 μg/ml PHA, read-out: D: IC50 (Tcell proliferation).
The mark [9] stands for this setting: human PBMC, 2 μg/ml PHA, read-out: B: IC50 (IL-17FF).

Read-outs that look alike come from different tables or passages of the source. Where only a bound is given, the exact number is not on record here.

For the molecule `CC(C)OC(=O)c1c(-c2c(F)cccc2Cl)noc1-c1cnn(-c2ccccc2F)c1C(F)(F)F` [Example I-43, i-Propyl 3-(2-chloro-6-fluorophenyl)-5-[1-(2-fluorophenyl)-5-(trifluoromethyl)-1H-pyrazol-4-yl]isoxazole-4-carboxylate], the IC50 lay in the range of 10 to 100 nM in assay [1] (setting [4]), 10 to 100 nM in assay [2] (setting [5]) and 100 to 1000 nM in assay [3] (setting [6]).

Take `CCOC(=O)c1c(-c2onc(-c3c(F)cccc3Cl)c2C(=O)OC)cnn1-c1cccc(F)c1` [Example I-8, methyl 3-(2-chloro-6-fluorophenyl)-5-(5-(ethoxycarbonyl)-1-(3-fluorophenyl)-1H-pyrazol-4-yl)isoxazole-4-carboxylate]: the IC50 in assay [1] (setting [4]), in assay [2] (setting [5]) and in assay [3] (setting [6]) was 100 to 1000 nM each time.

In the case of `Fc1cccc(Cl)c1-c1noc(-c2cnn(-c3ccncc3)c2C(F)(F)F)c1Br` [IB-83, 4-bromo-3-(2-chloro-6-fluorophenyl)-5-(1-(pyridin-4-yl)-5-(trifluoromethyl)-1H-pyrazol-4-yl)isoxazole], the values for the IC50 in assay [1] (setting [4]), in assay [2] (setting [5]) and in assay [3] (setting [6]) were 1000 to 10000 nM, 1000 to 10000 nM and 100 to 1000 nM, respectively.

For `Cc1nnc(-c2c(-c3c(F)cccc3Cl)noc2-c2cnn(-c3cccnc3)c2C(F)(F)F)o1` [Example B-10, 2-(3-(2-chloro-6-fluorophenyl)-5-(1-(pyridin-3-yl)-5-(trifluoromethyl)-1H-pyrazol-4-yl)isoxazol-4-yl)-5-methyl-1,3,4-oxadiazole], the IC50 in assay [1] (setting [7]) lay within 10 to 100 nM; in assay [2] (setting [8]) it was 100 to 1000 nM; in assay [3] (setting [9]), 100 to 1000 nM.

As to `CCOC(=O)c1c(-c2c(F)cccc2Cl)noc1-c1cnn(-c2ccccc2[N+](=O)[O-])c1C(F)(F)F` [IB-95, 3-(2-chloro-6-fluorophenyl)-5-(1-(2-nitrophenyl)-5-(trifluoromethyl)-1H-pyrazol-4-yl)isoxazole-4-carboxylate], the IC50 lay within 10 to 100 nM in assay [1] (setting [4]), 100 to 1000 nM in assay [2] (setting [5]) and 10 to 100 nM in assay [3] (setting [6]).

As for `COC(=O)c1c(-c2c(F)cccc2Cl)noc1-c1cnn(-c2ccccc2F)c1C(F)(F)F` [Example I-1, methyl 3-(2-chloro-6-fluorophenyl)-5-(1-(2-fluorophenyl)-5-(trifluoromethyl)-1H-pyrazol-4-yl)isoxazole-4-carboxylate], the results for the IC50 in assay [1] (setting [4]), in assay [2] (setting [5]) and in assay [3] (setting [6]) were less than 10 nM, 10 to 100 nM and 10 to 100 nM, respectively.

Take `COC(=O)c1c(-c2c(F)cccc2Cl)noc1-c1cnn(-c2cccc(NC(C)=O)c2)c1C(F)(F)F` [IB-89, 5-(1-(3-acetamidophenyl)-5-(trifluoromethyl)-1H-pyrazol-4-yl)-3-(2-chloro-6-fluorophenyl)isoxazole-4-carboxylate]: the figures for the IC50 in assay [1] (setting [4]), in assay [2] (setting [5]) and in assay [3] (setting [6]) were 10 to 100 nM, 100 to 1000 nM and 10 to 100 nM, respectively.

As for `Fc1cccc(-n2ncc(-c3onc(-c4c(F)cccc4Cl)c3-c3ccccc3)c2C(F)(F)F)c1` [Example 14, 3-(2-chloro-6-fluorophenyl)-5-(1-(3-fluorophenyl)-5-(trifluoromethyl)-1H-pyrazol-4-yl)-4-phenylisoxazole], the IC50 in assay [1] (setting [7]) lay within 10 to 100 nM; in assay [2] (setting [8]) it was 100 to 1000 nM; in assay [3] (setting [9]), 100 to 1000 nM.

Regarding `Cc1nnc(-c2c(-c3c(F)cccc3Cl)noc2-c2cnn(-c3ccncc3)c2C(F)(F)F)o1` [Example B-19, 2-(3-(2-chloro-6-fluorophenyl)-5-(1-(pyridin-4-yl)-5-(trifluoromethyl)-1H-pyrazol-4-yl)isoxazol-4-yl)-5-methyl-1,3,4-oxadiazole], the IC50 in assay [1] (setting [7]), in assay [2] (setting [8]) and in assay [3] (setting [9]) was 100 to 1000 nM each time.

For `O=C(c1c(-c2c(F)cccc2Cl)noc1-c1cnn(-c2cccc(F)c2)c1C(F)(F)F)N1CCCO1` [Example I-118, (3-(2-chloro-6-fluorophenyl)-5-(1-(3-fluorophenyl)-5-(trifluoromethyl)-1H-pyrazol-4-yl)isoxazol-4-yl)(isoxazolidin-2-yl)methanone], the IC50 in assay [1] (setting [4]), in assay [2] (setting [5]) and in assay [3] (setting [6]) was 10 to 100 nM each time.

Regarding `NC(=O)c1c(-c2c(F)cccc2Cl)noc1-c1cnn(-c2cccc(Cl)c2)c1C(F)(F)F` [Example I-121, 3-(2-chloro-6-fluorophenyl)-5-(1-(3-chlorophenyl)-5-(trifluoromethyl)-1H-pyrazol-4-yl)isoxazole-4-carboxamide], the IC50 in assay [1] (setting [4]), in assay [2] (setting [5]) and in assay [3] (setting [6]) was 1000 to 10000 nM throughout.

On to `CNC(=S)c1c(-c2c(F)cccc2Cl)noc1-c1cnn(-c2cccc(F)c2)c1C(F)(F)F` [Example I-122, 3-(2-chloro-6-fluorophenyl)-5-(1-(3-fluorophenyl)-5-(trifluoromethyl)-1H-pyrazol-4-yl)-N-methylisoxazole-4-carbothioamide], for which the IC50 in assay [1] (setting [4]), in assay [2] (setting [5]) and in assay [3] (setting [6]) was 100 to 1000 nM each time.

In the case of `CCOC(=O)c1c(-c2c(F)cccc2Cl)noc1-c1cnn(-c2ccccc2C#N)c1C(F)(F)F` [IB-44, ethyl 3-(2-chloro-6-fluorophenyl)-5-(1-(2-cyanophenyl)-5-(trifluoromethyl)-1H-pyrazol-4-yl)-isoxazole-4-carboxylate], the IC50 in assay [1] (setting [4]), in assay [2] (setting [5]) and in assay [3] (setting [6]) was 1000 to 10000 nM throughout.

Take `CC(=O)Nc1cccc(-n2ncc(-c3onc(-c4c(F)cccc4Cl)c3C(=O)OC(C)C)c2C(F)(F)F)c1` [IB-78, isopropyl 5-(1-(3-acetamidophenyl)-5-(trifluoromethyl)-1H-pyrazol-4-yl)-3-(2-chloro-6-fluorophenyl)isoxazole-4-carboxylate]: the IC50 lay in the range of 100 to 1000 nM in assay [1] (setting [4]), 100 to 1000 nM in assay [2] (setting [5]) and 10 to 100 nM in assay [3] (setting [6]).

Turning to `CN1CCN(C(=O)c2c(-c3c(F)cccc3Cl)noc2-c2cnn(-c3ccccc3F)c2C(F)(F)F)CC1` [Example I-17, (3-(2-chloro-6-fluorophenyl)-5-(1-(2-fluorophenyl)-5-(trifluoromethyl)-1H-pyrazol-4-yl)isoxazol-4-yl)(4-methylpiperazin-1-yl)methanone], the IC50 in assay [1] (setting [4]) was in the range of 100 to 1000 nM; in assay [2] (setting [5]) it was 1000 to 10000 nM; in assay [3] (setting [6]), 100 to 1000 nM.

Take `COC(=O)c1c(-c2ccccc2)noc1-c1cnn(-c2ccccc2F)c1C(F)(F)F` [Example I-61, methyl 5-(1-(2-fluorophenyl)-5-(trifluoromethyl)-1H-pyrazol-4-yl)-3-phenylisoxazole-4-carboxylate]: the IC50 in assay [1] (setting [4]), in assay [2] (setting [5]) and in assay [3] (setting [6]) was 1000 to 10000 nM throughout.

Consider `NNC(=O)c1c(-c2c(F)cccc2Cl)noc1-c1cnn(-c2cccc(F)c2)c1C(F)(F)F` [Example I-133, 3-(2-chloro-6-fluorophenyl)-5-(1-(3-fluorophenyl)-5-(trifluoromethyl)-1H-pyrazol-4-yl)isoxazole-4-carbohydrazide], for which the IC50 in assay [1] (setting [4]), in assay [2] (setting [5]) and in assay [3] (setting [6]) was 1000 to 10000 nM each time.

Consider `CCOC(=O)c1c(-c2c(F)cccc2Cl)noc1-c1cnn(-c2cccc([N+](=O)[O-])c2)c1C(F)(F)F` [IB-90, ethyl 3-(2-chloro-6-fluorophenyl)-5-(1-(3-nitrophenyl)-5-(trifluoromethyl)-1H-pyrazol-4-yl)isoxazole-4-carboxylate], for which the IC50 in assay [1] (setting [4]), in assay [2] (setting [5]) and in assay [3] (setting [6]) was 10 to 100 nM in each case.

Consider `COC(=O)c1c(-c2ccccc2)noc1-c1cnn(-c2cccc(Cl)c2)c1C(F)(F)F` [IB-30, methyl 5-(1-(3-chlorophenyl)-5-(trifluoromethyl)-1H-pyrazol-4-yl)-3-phenylisoxazole-4-carboxylate], for which the IC50 in assay [1] (setting [4]), in assay [2] (setting [5]) and in assay [3] (setting [6]) was 100 to 1000 nM each time.

For `Fc1ccccc1-n1ncc(-c2onc(-c3c(F)cccc3Cl)c2-c2cnco2)c1C(F)(F)F` [Example B-28, 3-(2-chloro-6-fluorophenyl)-5-(1-(2-fluorophenyl)-5-(trifluoromethyl)-1H-pyrazol-4-yl)-4-(oxazol-5-yl)isoxazole], the IC50 in assay [1] (setting [7]), in assay [2] (setting [8]) and in assay [3] (setting [9]) was 100 to 1000 nM throughout.

As for `CCOC(=O)c1c(-c2onc(-c3c(F)cccc3Cl)c2C(=O)OC)cnn1-c1ccccc1F` [Example I-41, methyl 3-(2-chloro-6-phenyl)-5-(5-(ethoxycarbonyl)-1-(2-fluorophenyl)-1H-pyrazol-4-yl)isoxazole-4-carboxylate], the IC50 in assay [1] (setting [4]), in assay [2] (setting [5]) and in assay [3] (setting [6]) was 100 to 1000 nM in each case.

As to `Cc1nnc(-c2c(-c3c(F)cccc3Cl)noc2-c2cnn(-c3ccccc3Cl)c2C(F)(F)F)s1` [Example B-20, 3-(2-chloro-6-fluorophenyl)-5-(1-(2-chlorophenyl)-5-(trifluoromethyl)-1H-pyrazol-4-yl)-4-(5-methyl-1,3,4-thiadiazol-2-yl)isoxazole], the IC50 in assay [1] (setting [7]), in assay [2] (setting [8]) and in assay [3] (setting [9]) was 100 to 1000 nM in each case.

In the case of `N#Cc1c(-c2c(F)cccc2Cl)noc1-c1cnn(-c2cccc(F)c2)c1C(F)(F)F` [Example I-120, 3-(2-chloro-6-fluorophenyl)-5-(1-(3-fluorophenyl)-5-(trifluoromethyl)-1H-pyrazol-4-yl)isoxazole-4-carbonitrile], the IC50 in assay [1] (setting [4]), in assay [2] (setting [5]) and in assay [3] (setting [6]) was 100 to 1000 nM each time.
